The structures appear in SMILES notation. Bounds are passed on as bounds.

As a reminder, the IC50 is the point on the concentration scale where inhibition reaches its midpoint.

Format in all cases: cell-based, human
Common to all, as to conditions: 3 days with compound at 0.02 to 5 μM, CCK-8, A450, 50% inhibition of cell viability

Assay [1] relates to SKES (type 2, 7/5) cells (Ewing Sarcoma cell line). As to the kind of experiment: Cell growth inhibition, modified tetrazolium salt assay (CCK-8 kit), SKES cells. The procedure: (§1) A modified tetrazolium salt assay using the CCK-8 kit (Sigma-Aldrich; St Louis, Mo.) was used to measure the inhibition of human tumor cell growth. Tumor cells (5000-7500 per well) were added to 96 well plates and allowed to attach for 4-5 hours. Compounds were serially diluted and added in triplicate at a concentration of 0.02 to 5 μM. DMSO was included as a vehicle control. Cells were incubated in the presence of compound for 3 days. After incubation CCK-8 reagent was added to each well and incubated for 2-4 hours. Viable cells were quantitated spectrophotometrically at a wavelength of 450 nm. Percent viability of each sample was calculated from the A450 values as follows: % viability=(A450 nm sample/A450 nm DMSO-treated cells×100). The IC50 was defined as the concentration that gave rise to 50% inhibition of cell viability. IC50 activities of particular compounds were determined using SKES (type 2, 7/5) cells (Ewing Sarcoma cell line), TC71 (Type 1, 7/6) cells (Ewing Sarcoma cell line), and A4573 (Type 3, 10/6) cells (Ewing Sarcoma cell line). […] TK-216 is a YK-4-279 clinical derivative that is in phase 1 for patients with relapsed or refractory Ewing sarcoma. Preclinical testing has been conducted for TK-216 in lymphoma models. Test results for the analogs were compared to those for TK-216 and YK-4-279.
(Tetrazolium dyes change colour on reduction, which living cells bring about.)

In assay [2] the test system is A4573 (Type 3, 10/6) cells (Ewing Sarcoma cell line). In words: Cell growth inhibition, modified tetrazolium salt assay (CCK-8 kit), A4573 cells. The procedure: as §1
Assay [3] relates to TC71 (Type 1, 7/6) cells (Ewing Sarcoma cell line). In words: Cell growth inhibition, modified tetrazolium salt assay (CCK-8 kit), TC71 cells. The procedure:
as §1

For the compound `O=C(CC1(O)C(=O)Nc2c(Cl)ccc(Cl)c21)c1ccc(C2(F)CC2)cc1` (stereo not drawn) [TK Analog 2], the IC50 was less than 5 µM in assay [1] (Homo sapiens, 72 h); less than 5 µM in assay [2] (Homo sapiens, 72 h); less than 5 µM in assay [3] (Homo sapiens, TC-71, 72 h).
Turning to `NC1(c2ccc(C(=O)CC3(O)C(=O)Nc4c(Cl)ccc(Cl)c43)cc2)CC1` (stereo not drawn) [TK Analog 3], the IC50 is less than 5 µM in assay [1] (Homo sapiens, 72 h); more than 5 µM in assay [2] (Homo sapiens, 72 h); more than 5 µM in assay [3] (Homo sapiens, TC-71, 72 h).
On to `O=C(CC1(O)C(=O)Nc2c(Cl)ccc(Cl)c21)c1ccc(OC(F)F)cc1` (stereo not drawn) [TK Analog 4], for which the 50% inhibitory concentration (IC50) in assay [1] (Homo sapiens, 72 h) is more than 5 µM; in assay [2] (Homo sapiens, 72 h), more than 5 µM; in assay [3] (Homo sapiens, TC-71, 72 h), more than 5 µM.
On to `C#Cc1ccc(C(=O)CC2(O)C(=O)Nc3c(Cl)ccc(Cl)c32)cc1` (stereo not drawn) [TK Analog 5], for which the IC50 in assay [1] (Homo sapiens, 72 h) is more than 5 µM; in assay [2] (Homo sapiens, 72 h), more than 5 µM; in assay [3] (Homo sapiens, TC-71, 72 h), more than 5 µM.
For the compound `COc1ccc(C(=O)CC2C(=O)Nc3c(Cl)ccc(Cl)c32)cc1` (stereo not drawn) [TK Analog 6], the IC50 in assay [1] (Homo sapiens, 72 h) is less than 5 µM; in assay [2] (Homo sapiens, 72 h), less than 5 µM; in assay [3] (Homo sapiens, TC-71, 72 h) it was less than 5 µM.
`COc1ccc(C(=O)CC2(F)C(=O)Nc3c(Cl)ccc(Cl)c32)cc1` (stereo not drawn) [TK Analog 7]: the IC50 in assay [1] (Homo sapiens, 72 h) is less than 5 µM; in assay [2] (Homo sapiens, 72 h) it was less than 5 µM; in assay [3] (Homo sapiens, TC-71, 72 h), less than 5 µM.
For the compound `COc1ccc(C(=O)CC2(N)C(=O)Nc3c(Cl)ccc(Cl)c32)cc1` (stereo not drawn) [TK Analog 8], the IC50 is less than 5 µM in assay [1] (Homo sapiens, 72 h); more than 5 µM in assay [2] (Homo sapiens, 72 h); more than 5 µM in assay [3] (Homo sapiens, TC-71, 72 h).
As for `O=C(CC1(O)C(=O)Nc2c(Cl)ccc(Cl)c21)c1ccc2occc2c1` (stereo not drawn) [TK Analog 9], the IC50 is less than 5 µM in assay [1] (Homo sapiens, 72 h); more than 5 µM in assay [2] (Homo sapiens, 72 h); more than 5 µM in assay [3] (Homo sapiens, TC-71, 72 h).
For `O=C(CC1(O)C(=O)Nc2c(Cl)ccc(Cl)c21)c1ccc2sccc2c1` (stereo not drawn) [TK Analog 10], the IC50 was less than 5 µM in assay [1] (Homo sapiens, 72 h); less than 5 µM in assay [2] (Homo sapiens, 72 h); less than 5 µM in assay [3] (Homo sapiens, TC-71, 72 h).
On to `O=C(CC1(O)C(=O)Nc2c(Cl)ccc(Cl)c21)c1ccc2[nH]ccc2c1` (stereo not drawn) [TK Analog 11], for which the IC50 in assay [1] (Homo sapiens, 72 h) is less than 5 µM; in assay [2] (Homo sapiens, 72 h), less than 5 µM; in assay [3] (Homo sapiens, TC-71, 72 h) it was less than 5 µM.
With `CNC(=O)Oc1ccc(C(=O)CC2(O)C(=O)Nc3c(Cl)ccc(Cl)c32)cc1` (stereo not drawn) [TK Analog 13], the IC50 in assay [1] (Homo sapiens, 72 h) is more than 5 µM; in assay [2] (Homo sapiens, 72 h), more than 5 µM; in assay [3] (Homo sapiens, TC-71, 72 h) it was more than 5 µM.
On to `CN(C)c1ccc(-c2cc3c(nn2)[nH]c2c(Cl)ccc(Cl)c23)cc1` [TK Analog 14], for which the IC50 in assay [1] (Homo sapiens, 72 h) is more than 5 µM; in assay [2] (Homo sapiens, 72 h) it was more than 5 µM; in assay [3] (Homo sapiens, TC-71, 72 h), more than 5 µM.
For `COc1ccc(C(=O)CC2(O)C(=O)Nc3c(Cl)ccc(Cl)c32)c(F)c1` (stereo not drawn) [TK Analog 15A], the IC50 is less than 5 µM in assay [1] (Homo sapiens, 72 h); less than 5 µM in assay [2] (Homo sapiens, 72 h); less than 5 µM in assay [3] (Homo sapiens, TC-71, 72 h).
`COc1ccc2nn(CC3(O)C(=O)Nc4c(Cl)ccc(Cl)c43)cc2c1` (stereo not drawn) [TK Analog 16A]: the concentration for half-maximal inhibition (IC50) in assay [1] (Homo sapiens, 72 h) is more than 5 µM; in assay [2] (Homo sapiens, 72 h), more than 5 µM; in assay [3] (Homo sapiens, TC-71, 72 h) it was more than 5 µM.
Regarding `COc1ccc2c(cnn2CC2(O)C(=O)Nc3c(Cl)ccc(Cl)c32)c1` (stereo not drawn) [TK Analog 16], the IC50 in assay [1] (Homo sapiens, 72 h) was less than 5 µM; in assay [2] (Homo sapiens, 72 h), more than 5 µM; in assay [3] (Homo sapiens, TC-71, 72 h), more than 5 µM.
Consider `COc1ccc2c(CC3(O)C(=O)Nc4c(Cl)ccc(Cl)c43)noc2c1` (stereo not drawn) [TK Analog 17], for which the half-inhibitory concentration (IC50) in assay [1] (Homo sapiens, 72 h) was more than 5 µM; in assay [2] (Homo sapiens, 72 h), more than 5 µM; in assay [3] (Homo sapiens, TC-71, 72 h) it was more than 5 µM.
For the compound `COc1ccc2c(CC3(O)C(=O)Nc4c(Cl)ccc(Cl)c43)nsc2c1` (stereo not drawn) [TK Analog 18], the IC50 is less than 5 µM in assay [1] (Homo sapiens, 72 h); more than 5 µM in assay [2] (Homo sapiens, 72 h); more than 5 µM in assay [3] (Homo sapiens, TC-71, 72 h).
Turning to `O=C(CC1(O)C(=O)Nc2c(Cl)ccc(Cl)c21)c1ccc2ccccc2c1` (stereo not drawn) [TK Analog 19], the 50% inhibitory concentration (IC50) in assay [1] (Homo sapiens, 72 h) is less than 5 µM; in assay [2] (Homo sapiens, 72 h) it was less than 5 µM; in assay [3] (Homo sapiens, TC-71, 72 h), less than 5 µM.
Take `O=C(CC1(O)C(=O)Nc2c(Cl)ccc(Cl)c21)c1ccc(C2CC2)nc1` (stereo not drawn) [TK Analog 20]: the IC50 in assay [1] (Homo sapiens, 72 h) was more than 5 µM; in assay [2] (Homo sapiens, 72 h), more than 5 µM; in assay [3] (Homo sapiens, TC-71, 72 h), more than 5 µM.
Regarding `O=C(CC1(O)C(=O)Nc2c(Cl)ccc(Cl)c21)c1ccc(C2CC2)cn1` (stereo not drawn) [TK Analog 21], the IC50 was more than 5 µM in assay [1] (Homo sapiens, 72 h); more than 5 µM in assay [2] (Homo sapiens, 72 h); more than 5 µM in assay [3] (Homo sapiens, TC-71, 72 h).
For the compound `O=C(CC1(O)C(=O)Nc2c(Cl)ccc(Cl)c21)c1ccc(C2CC2)s1` (stereo not drawn) [TK Analog 22], the IC50 was less than 5 µM in assay [1] (Homo sapiens, 72 h); more than 5 µM in assay [2] (Homo sapiens, 72 h); more than 5 µM in assay [3] (Homo sapiens, TC-71, 72 h).
Turning to `O=C(CC1(O)C(=O)Nc2c(Cl)ccc(Cl)c21)c1cc(C2CC2)cs1` (stereo not drawn) [TK Analog 23], the IC50 in assay [1] (Homo sapiens, 72 h) was more than 5 µM; in assay [2] (Homo sapiens, 72 h) it was more than 5 µM; in assay [3] (Homo sapiens, TC-71, 72 h) it was more than 5 µM.
For `O=C(CC1(O)C(=O)Nc2c(Cl)ccc(Cl)c21)c1csc(C2CC2)c1` (stereo not drawn) [TK Analog 24], the IC50 in assay [1] (Homo sapiens, 72 h) was more than 5 µM; in assay [2] (Homo sapiens, 72 h), more than 5 µM; in assay [3] (Homo sapiens, TC-71, 72 h) it was more than 5 µM.
Turning to `O=C(CC1(O)C(=O)Nc2c(Cl)ccc(Cl)c21)c1ccc(C2CC2)cc1` (stereo not drawn) [TK-216-2, reference compound], the IC50 in assay [1], in assay [2] and in assay [3] was less than 5 µM each time.
Consider `COc1ccc(C(=O)CC2(O)C(=O)Nc3c(Cl)ccc(Cl)c32)cc1` (stereo not drawn) [YK-4-279, 4,7-dichloro-3-hydroxy-3-(2-(4-methoxyphenyl)-2-oxoethyl)indolin-2-one, reference compound], for which the IC50 in assay [1] (Homo sapiens, 72 h) is less than 5 µM; in assay [2] (Homo sapiens, 72 h) it was less than 5 µM; in assay [3] (Homo sapiens, TC-71, 72 h), less than 5 µM.

Values taken from patent publication US10711008B2, “Indoline analogs and uses thereof” (Oncternal Therapeutics, Inc., priority 2016, dated 2020).
